Results from US20230119013A1, “N-CYANOPYRROLIDINES WITH ACTIVITY AS USP30 INHIBITORS” (MISSION THERAPEUTICS LIMITED, priority 2020, published 2023).

Columns and labels:
[1] = test system: UUO injured kidneys; assay: UUO model of tubulointerstitial fibrosis; type: in vivo, C57BL/6 mice; settings: 10 days
Source text: (a) Bleomycin-induced lung fibrosis model, which is a leading preclinical in vivo model of Idiopathic Pulmonary Fibrosis. [Kobayashi et al, 2016, J Immunol, 197(2):504-516] (b) Diet-induced model of NAFLD and glucose homeostasis. [Nishida et al, 2013, Lab Invest; February; 93(2):230-41] (c) MPTP Model of Parkinson's Disease, which is a commonly used paradigm for looking at neurodegeneration in the dopaminergic system of the brain which is triggered by chemically-induced mitochondrial dysfunction. [Karuppagouner et al, 2014, Sci Rep. 2014 May 2; 4:4874] (d) Ndufs4KO Leigh syndrome model. [Kruse et al, 2008, Cell Metab. April; 7(4):312-20] (e) Aged rodent model: effects on hippocampal, cognitive and motor function. [Kobilo et al, 2014, Learn Mem. January 17; 21(2):119-26; Creed et al, 2019, Neuroscience. June 15; 409:169-179; Van Skike et al, 2020, Aging Cell. 19; e13057]. Example 1 was assessed in this model. (f) UUO causes renal injury characterised by tubular cell injury, interstitial inflammation and fibrosis. It serves as a model of irreversible post-renal acute kidney injury (AKI). […]
Example 1 was assessed in the UUO model to determine the ability of the compound to attenuate progressive tubulointerstitial fibrosis and chronic kidney disease (CKD). […]

[2] = target: T1, USP30 (Mus musculus, UniProt Q3UN04); assay: USP30 brain tissue target engagement assay (TE ex vivo); type: in vivo; settings: 2 mg/kg iv, n = 2 avg
T1 construct: in either brain or kidney tissue samples from compound-dosed animals; from tissue; b325 calls 'TE ex vivo' a kidney tissue assay
T1 sequence (Q3UN04 whole entry): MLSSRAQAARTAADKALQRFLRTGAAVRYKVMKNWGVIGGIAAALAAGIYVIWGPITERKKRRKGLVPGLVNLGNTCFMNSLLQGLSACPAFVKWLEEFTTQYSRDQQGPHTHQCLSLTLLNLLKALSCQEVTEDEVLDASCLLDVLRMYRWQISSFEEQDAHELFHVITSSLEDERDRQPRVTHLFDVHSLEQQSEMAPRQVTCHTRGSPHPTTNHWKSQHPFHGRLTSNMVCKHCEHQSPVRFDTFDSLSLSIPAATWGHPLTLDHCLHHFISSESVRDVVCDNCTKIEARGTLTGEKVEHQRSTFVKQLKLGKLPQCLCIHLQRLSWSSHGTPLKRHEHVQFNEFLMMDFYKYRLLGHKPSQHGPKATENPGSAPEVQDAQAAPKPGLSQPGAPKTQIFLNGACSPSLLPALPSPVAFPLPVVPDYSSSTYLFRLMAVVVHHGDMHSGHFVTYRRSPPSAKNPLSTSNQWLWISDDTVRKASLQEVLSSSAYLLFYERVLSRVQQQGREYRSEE
Method: 50 to 100 mg of tissue was homogenised in 3× volume of lysis buffer (50 mM Tris-base, pH 7.5, 50 mM NaCl, 1% NP-40/Igepal CA-630, 2 mM MgCl2, 10% Glycerol, 5 mM beta-mercaptoethanol, cOmplete mini tablets EDTA free (Roche), PhosStop tablets (Roche)) using the Retch Mixer Mill (MM400). The lysates were cleared and protein quantified using the Bradford Protein assay (Pierce). Lysate containing 60 μg protein was incubated with a final conc of 24 μM of HA-Ahx-Ahx-Ub-VME probe for 60 mins at room temperature. The reaction was stopped by addition of 5×SDS sample loading buffer and proteins separated by SDS-PAGE and western blotting. USP30 was detected using an anti-USP30 Sheep S746D antibody (MRC PPU Reagents and Services) and a rabbit anti sheep secondary IgG (H+L) horseradish peroxidase conjugated (Thermo #31480) and visualised using ECL reagent (GE #RPN2109) on a GE LAS4000 imager. Target engagement was measured by quantitation of the bands corresponding to USP30 and USP30 bound to the Ub-VME probe and expression of this proportion compared to vehicle treated control.
MDR1-MDCK (Madin-Darby Canine Kidney cell monolayer) (in vitro) flux assay. Cell TE WB: USP30 endogenous cellular target engagement western blot (WB) assay. Assays the activity of compounds against USP30 in cells using an irreversible activity probe to monitor USP30 activity. […]

[3] = target: T2, USP30 (Homo sapiens, UniProt Q70CQ3); assay: USP30 endogenous cellular target engagement western blot assay (Cell TE WB); type: cell-based; settings: Hela cells stably overexpressing YFP-Parkin, 1 hour
T2 construct: USP30 endogenous cellular target engagement western blot (WB) assay; endogenous in cells; host or cells: HeLa cells stably overexpressing YFP-Parkin
T2 sequence (Q70CQ3 whole entry): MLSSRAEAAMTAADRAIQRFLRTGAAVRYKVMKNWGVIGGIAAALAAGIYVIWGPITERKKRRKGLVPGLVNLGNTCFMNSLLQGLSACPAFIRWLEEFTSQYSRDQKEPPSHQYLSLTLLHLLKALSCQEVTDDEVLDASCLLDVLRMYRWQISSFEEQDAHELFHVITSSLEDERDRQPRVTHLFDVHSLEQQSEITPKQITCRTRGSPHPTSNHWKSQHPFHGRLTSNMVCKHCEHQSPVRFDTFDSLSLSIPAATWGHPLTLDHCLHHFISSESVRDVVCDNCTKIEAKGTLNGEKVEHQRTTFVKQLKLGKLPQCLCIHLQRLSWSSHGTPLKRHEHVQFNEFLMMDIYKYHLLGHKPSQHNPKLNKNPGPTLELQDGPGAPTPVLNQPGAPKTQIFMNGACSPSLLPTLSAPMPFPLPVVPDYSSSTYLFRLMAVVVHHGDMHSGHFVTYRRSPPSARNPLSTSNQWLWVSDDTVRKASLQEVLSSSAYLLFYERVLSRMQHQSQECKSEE
Method: Hela cells stably overexpressing YFP-Parkin were seeded into 6 well dishes. Once adhered, cells were treated with appropriate concentrations of test compounds or vehicle control for 1 hour at 37° C., 5% CO2. Whole cell lysates were prepared by scraping the cells into cold PBS, centrifuging and lysing in lysis buffer (50 mM Tris-base, pH 7.5, 50 mM NaCl, 1% NP-40/Igepal CA-630, 2 mM MgCl2, 10% Glycerol, 5 mM beta-mercaptoethanol, cOmplete mini tablets EDTA free (Roche), PhosStop tablets (Roche)) for 10 mins. The equivalent of 20 μg of protein from the cleared cell lysate was incubated with a final conc of 2.5 μM HA-Ahx-Ahx-Ub-VME probe at room temperature. The reaction was stopped by addition of 5×SDS sample loading buffer and proteins separated by SDS PAGE and western blotting. USP30 was detected using an anti-USP30 Sheep S746D antibody (MRC PPU Reagents and Services) and a rabbit anti sheep secondary IgG (H+L) horseradish peroxidase conjugated (Thermo #31480) and visualised using ECL reagent (GE #RPN2109) on a GE LAS4000 imager. Target engagement was measured by quantitation of the bands corresponding to USP30 and USP30 bound to the Ub-VME probe and expression of this proportion compared to vehicle treated control.
MDR1-MDCK (Madin-Darby Canine Kidney cell monolayer) (in vitro) flux assay. Cell TE WB: USP30 endogenous cellular target engagement western blot (WB) assay. […]

SMILES	α-SMA levels in UUO injured kidneys v vehicle treated controls ([1]; 15, 5 and 1.5 mg/kg oral BID)	collagen deposition (picrosirius red staining) in ligated kidneys ([1]; 15, 5 and 1.5 mg/kg p.o. BID)	TE ex vivo Mouse brain (%) at 15 min ([2]; 15 min) [%]	TE ex vivo Mouse brain (%) at 60 min ([2]; 60 min) [%]	EC50 [3] [nM]
COC[C@@H]1C[C@@H](NC(=O)c2ncc(-c3cccc(OC(F)(F)F)c3)o2)CN1C#N [Example 1, N-((3R,5S)-1-Cyano-5-(methoxymethyl)pyrrolidin-3-yl)-5-(3-(trifluoromethoxy)phenyl)oxazole-2-carboxamide]	statistical reduction in α-SMA levels	statistically reduced collagen deposition			
C[C@@H]1C[C@@H](NC(=O)c2ncc(-c3cccc(OC(F)(F)F)c3)o2)CN1C#N [Example 2, N-((3R,5R)-1-Cyano-5-methylpyrrolidin-3-yl)-5-(3-(trifluoromethoxy)phenyl)oxazole-2-carboxamide]			68	25	7
